# Results published in USRE50189E1, “Long term treatment of HIV-infection with TMC278” (Janssen Sciences Ireland Unlimited Company, priority 2006, dated 2024).
# Legend:
# [1] = plasma kinetics of TMC278 in the beagle dog after single intramuscular administration of aqueous 30% DMA/50% PEG400 solution; assay type: in vivo; conditions: single IM 2.5 mg/kg
# Procedure: The study was performed in order to study the plasma kinetics and the absolute bioavailability of TMC278 in the beagle dog after single intramuscular administration (IM) of an aqueous 30% dimethylacetamide (DMA)/50% polyethylene glycol 400 (PEG400) solution of TMC278 at 2.5 mg/kg. The dogs were dosed IM.
# Two male beagle dogs (dog No. 16924 and 16854), approximately 3 years old and weighing between 11 and 12 kg at the start of the experimental phase, were used in the present experiment. The dogs were dosed intramuscularly at 0.1 ml/kg body weight by injecting the formulation in the left (dog No. 16924) or right (dog No. 16854) m. biceps femoris. […]
# Blood samples (4 ml on EDTA) were taken from a jugular vein from the dogs at 0 (=predose), 0.5, 1, 2, 4, 8, 24, 32, 48, 72, 96, 144, 192, 240 and 312 h after dose administration. […] These samples were analogously processed and analysed.
# On day 232 post-dose, a biopsy was performed (dog No. 16924 only) on the iliac lymph node (at the side of injection), on a muscle from the non-injected hind leg and on a muscle at the side of injection after ultrasonographic examination. […] This sample was processed and analysed similarly to the other blood samples.
# The concentration of TMC278 in dog plasma was determined by a qualified research LC-MS/MS method after solid phase extraction (SPE). […]
# [2] = tested on: wild type HIV and mutated variants; conditions: cited from earlier work
compound,measurement,setting,value
"Cc1cc(C=CC#N)cc(C)c1Nc1ccnc(Nc2ccc(C#N)cc2)n1 [TMC278, 4-[[4-[[4-(2-cyanoethenyl)-2,6-dimethylphenyl]amino]-2-pyrimidinyl]amino]benzonitrile]","t1/2,24-72h",[1]; mean (n=2),63.1 h
same,course of plasma levels after 72 h post-dose,[1]; 72 h up to 312 h post-dose,remained fairly constant or slightly increased
same,activity against wild type HIV and many of its mutated variants,[2],pronounced activity
